For assay [1], the system named is PrP^Sc-induced synaptotoxicity on hippocampal neurons. As to conditions: cited from earlier work.
Assay [2] has as its system amyloid β-derived diffusible ligand (ADDL) induced synaptotoxicity. The following applies: cited from earlier work.
In assay [3] the target is CKIδ (Homo sapiens, UniProt P48730). As to conditions: Verkaar et al. (2011); cited from earlier work.
Assay [4] concerns PrP^Sc-induced synaptotoxicity on hippocampal neurons. Briefly: cells. Type of assay: cell-based, mice.
The target in assay [5] is CKIε (Homo sapiens, UniProt P49674). As to conditions: Verkaar et al. (2011); cited from earlier work.
The subject of assay [6] is PrP^Sc-induced synaptotoxicity on hippocampal neurons. Type of assay: cell-based, mice.

Sequence of CKIδ (P48730 whole entry, species assumed): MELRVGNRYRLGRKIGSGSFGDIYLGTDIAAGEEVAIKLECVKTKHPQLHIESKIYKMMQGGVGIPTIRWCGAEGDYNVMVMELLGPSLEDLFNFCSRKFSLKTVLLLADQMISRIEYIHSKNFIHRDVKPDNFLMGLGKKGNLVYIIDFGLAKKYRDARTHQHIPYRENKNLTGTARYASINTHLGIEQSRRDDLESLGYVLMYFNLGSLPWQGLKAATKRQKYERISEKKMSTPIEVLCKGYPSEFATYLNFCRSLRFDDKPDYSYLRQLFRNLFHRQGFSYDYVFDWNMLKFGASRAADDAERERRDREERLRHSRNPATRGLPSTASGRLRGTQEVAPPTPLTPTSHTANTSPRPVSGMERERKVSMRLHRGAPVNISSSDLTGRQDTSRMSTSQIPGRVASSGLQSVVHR
Sequence of CKIε (P49674 whole entry, species assumed): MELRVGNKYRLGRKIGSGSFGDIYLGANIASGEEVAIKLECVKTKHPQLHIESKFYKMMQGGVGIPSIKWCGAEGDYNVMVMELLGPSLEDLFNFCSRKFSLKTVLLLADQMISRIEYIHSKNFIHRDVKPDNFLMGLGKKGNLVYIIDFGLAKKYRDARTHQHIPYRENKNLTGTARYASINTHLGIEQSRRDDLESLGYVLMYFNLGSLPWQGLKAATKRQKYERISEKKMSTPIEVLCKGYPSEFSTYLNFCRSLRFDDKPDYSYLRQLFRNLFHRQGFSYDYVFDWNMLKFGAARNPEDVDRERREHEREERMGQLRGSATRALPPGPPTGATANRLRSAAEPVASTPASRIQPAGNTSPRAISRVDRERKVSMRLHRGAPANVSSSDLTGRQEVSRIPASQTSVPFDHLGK

As for `Cc1cccc(C#Cc2ccccc2)n1` [MPEP], the “Effect on PrP^Sc-induced retraction of dendritic spines / synaptotoxicity” value in assay [1] is listed as “had no influence”. In addition, in assay [2], the “Effect on Aβ oligomer induced dendritic spine retraction / loss” value was “blocked”.

Regarding `COc1nccc(-c2c(-c3ccc(F)cc3)ncn2C2CCC(O)CC2)n1` (centres unmarked) [SB239063], in assay [3], the “Inhibition of casein kinase isoform CKIδ” value is recorded as “reported to inhibit”. Moreover, in assay [4], the “Effect on spine retraction caused by PrP^Sc” value is reported as “prevented spine retraction” and the “Reversal of dendritic spine retraction accrued during first 24 hrs of PrP^Sc treatment” value is on record as “able to reverse the dendritic spine retraction”. In assay [1], the “Effect on PrP^Sc-induced retraction of dendritic spines / synaptotoxicity” value is on record as “blocked”. In addition, in assay [2], the “Effect against ADDL induced synaptotoxicity” value is recorded as “ineffective” and the “Effect on Aβ oligomer induced dendritic spine retraction / loss” value is listed as “no significant effect”. In assay [5], the “Inhibition of casein kinase isoform CKIε” value is “reported to inhibit”.

Consider `O=c1ncn2nc(Sc3ccc(F)cc3F)ccc2c1-c1c(Cl)cccc1Cl` [neflamapimod], for which, in assay [4], the “Dose dependence of effect on PrP^Sc-induced spine loss” value is given as “dose dependent” and the “Effect on PrP^Sc effects on dendritic spine number” value is listed as “blocked”. In addition, the concentration for a half-maximal effect (EC50) in assay [4] (Mus musculus, Hippocampal neuron, 24 h, read-out: EC50 of dose response curve for the rescuing effect on spine number) came out at 28.9 nM. In addition, the “Effect on PrP^Sc effects on mEPSC properties (frequency and amplitude)” value in assay [6] is recorded as “blocked”. Moreover, the “Effect against ADDL induced synaptotoxicity” value in assay [2] is listed as “showed positive effects”.

Values taken from patent US20220387432A1 (priority 2019, published 2022).
